From BindingDB's records for PubMed 9618428 (Glaxo Wellcome Research and Development, 1998)
Values joined by “and” are separate entries in the source; they are usually repeats but may differ in a detail not shown here. Equal values may be shown once.

Assays:
[1] = target: Melatonin receptor type 1A (Sus scrofa, UniProt O02781)
[2] = target: T1, Melatonin receptor type 1B (Homo sapiens, UniProt P49286)
T1 sequence (P49286 whole entry): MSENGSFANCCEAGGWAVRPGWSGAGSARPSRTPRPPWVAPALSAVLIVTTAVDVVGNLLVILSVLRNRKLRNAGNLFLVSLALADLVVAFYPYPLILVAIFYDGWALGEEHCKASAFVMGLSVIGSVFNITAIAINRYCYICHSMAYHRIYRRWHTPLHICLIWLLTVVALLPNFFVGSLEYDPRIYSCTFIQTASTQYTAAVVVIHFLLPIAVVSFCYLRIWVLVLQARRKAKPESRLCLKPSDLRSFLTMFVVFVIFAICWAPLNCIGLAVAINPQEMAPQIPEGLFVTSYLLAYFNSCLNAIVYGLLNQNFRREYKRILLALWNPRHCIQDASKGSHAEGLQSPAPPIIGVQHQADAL

[3] = target: Melatonin receptor type 1A (Homo sapiens, UniProt P48039)
Melatonin receptor type 1A (Homo sapiens, UniProt P48039), sequence (P48039 whole entry): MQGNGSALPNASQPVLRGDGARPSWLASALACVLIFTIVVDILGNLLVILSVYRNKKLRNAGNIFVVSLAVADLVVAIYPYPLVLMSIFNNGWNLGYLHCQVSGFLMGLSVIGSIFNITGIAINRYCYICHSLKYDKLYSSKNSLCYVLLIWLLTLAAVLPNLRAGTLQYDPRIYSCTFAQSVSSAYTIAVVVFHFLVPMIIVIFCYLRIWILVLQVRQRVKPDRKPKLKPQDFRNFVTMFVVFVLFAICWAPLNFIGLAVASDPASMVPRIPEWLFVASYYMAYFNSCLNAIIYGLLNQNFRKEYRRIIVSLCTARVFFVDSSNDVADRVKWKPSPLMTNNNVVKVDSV

Melatonin receptor type 1A (Sus scrofa, UniProt O02781), sequence (O02781 whole entry): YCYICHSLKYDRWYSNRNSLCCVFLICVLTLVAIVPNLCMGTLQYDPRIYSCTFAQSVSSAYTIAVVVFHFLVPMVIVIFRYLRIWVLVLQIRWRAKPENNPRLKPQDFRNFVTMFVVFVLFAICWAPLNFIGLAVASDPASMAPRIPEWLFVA

Row | Ki [1] | Ki [2] | Ki [3] | Compound
1 | 0.03 nM and 0.04 nM | – | – | COc1ccc2[nH]c(I)c(CCNC(C)=O)c2c1
2 | 0.46 nM and 0.74 nM | – | – | COc1cc2c(CCNC(C)=O)c[nH]c2cc1Cl
3 | 0.25 nM and 0.24 nM | – | – | COc1ccc2[nH]cc(CCNC(C)=O)c2c1
4 | 933 nM and 676 nM | – | – | CC(=O)NCCc1c(Cc2ccccc2)[nH]c2ccccc12 [CAS_117946-91-5]
5 | 398 nM and 347 nM | 302 nM and 148 nM | 79.4 nM | CC(=O)NCCc1c[nH]c2ccc(O)cc12 [N-Acetyltryptamine,5-Hydroxy]
6 | 0.61 nM and 0.33 nM | 0.16 nM | 0.14 nM | CC(=O)NCCN1CCc2ccc3c(c21)CCO3 [NSC_5311134]
7 | 10.2 nM and 25.1 nM | 2.23 nM and 1.69 nM | 0.54 nM | COc1cc2c(CCNC(C)=O)c[nH]c2cc1O [melatonin, 6-Hydroxy]
